Test results reported in ChEMBL document CHEMBL4145521, “Regioselective synthesis of 3,4-diaryl-5-unsubstituted isoxazoles, analogues of natural cytostatic combretastatin A4” (Eur J Med Chem, 2018).

What was measured:
Assay type in all cases: functional
COLO 205 = assay: Cytotoxicity against human COLO205 cells assessed as cell growth at 1 uM incubated for 48 hrs by sulforhodamine B assay relative to control; settings: COLO 205, 48 h, read-out: Activity
M14 = assay: Cytotoxicity against human M14 cells incubated for 48 hrs by sulforhodamine B assay; settings: M14, 48 h
HOP-62 = assay: Cytotoxicity against human HOP62 cells assessed as cell growth at 100 uM incubated for 48 hrs by sulforhodamine B assay relative to control; settings: HOP-62, 48 h, read-out: Activity
NCI-H522 [1] = assay: Cytotoxicity against human NCI-H522 cells assessed as cell growth at 0.1 uM incubated for 48 hrs by sulforhodamine B assay relative to control; settings: NCI-H522, 48 h, read-out: Activity
MDA-MB-435 = assay: Cytotoxicity against human MDA-MB-435 cells incubated for 48 hrs by sulforhodamine B assay; settings: MDA-MB-435, 48 h
UACC-62 = assay: Cytotoxicity against human UACC62 cells assessed as cell growth at 100 uM incubated for 48 hrs by sulforhodamine B assay relative to control; settings: UACC-62, 48 h, read-out: Activity
SK-OV-3 = assay: Cytotoxicity against human SKOV3 cells assessed as cell growth at 0.01 uM incubated for 48 hrs by sulforhodamine B assay relative to control; settings: SK-OV-3, 48 h, read-out: Activity
TK-10 [2] = assay: Cytotoxicity against human TK10 cells assessed as cell growth at 10 uM incubated for 48 hrs by sulforhodamine B assay relative to control; settings: TK-10, 48 h, read-out: Activity
HL-60(TB) = assay: Cytotoxicity against human HL-60(TB) cells assessed as cell growth at 1 uM incubated for 48 hrs by sulforhodamine B assay relative to control; settings: HL-60, 48 h, read-out: Activity
NCI-H522 [3] = assay: Cytotoxicity against human NCI-H522 cells assessed as cell growth at 1 uM incubated for 48 hrs by sulforhodamine B assay relative to control; settings: NCI-H522, 48 h, read-out: Activity
TK-10 [4] = assay: Cytotoxicity against human TK10 cells incubated for 48 hrs by sulforhodamine B assay; settings: TK-10, 48 h
RXF 393 = assay: Cytotoxicity against human RXF393 cells assessed as cell growth at 100 uM incubated for 48 hrs by sulforhodamine B assay relative to control; settings: RXF 393, 48 h, read-out: Activity
HCT-116 = assay: Cytotoxicity against human HCT116 cells assessed as cell growth at 100 uM incubated for 48 hrs by sulforhodamine B assay relative to control; settings: HCT-116, 48 h, read-out: Activity
OVCAR-8 = assay: Cytotoxicity against human OVCAR8 cells incubated for 48 hrs by sulforhodamine B assay; settings: OVCAR-8, 48 h
[5] = read-out: LC50 (the source's name)
[6] = read-out: pLC50 (the source's name) (converted)

COc1ccc(-c2nocc2-c2cc(OC)c(OC)c(OC)c2)cc1
growth at 1 µM (COLO 205): 11% | GI50 (M14; read-out: GI50): 66.8 nM | CC50 (M14; [5]): > 100000 nM | TGI (M14; read-out: TGI): 53900 nM | GI50 (M14; read-out: pGI50 (converted)): 66.1 nM | CC50 (M14; [6]): > 100000 nM | TGI (M14; read-out: pTGI (converted)): 53700 nM | growth at 100 µM (HOP-62): 10% | growth at 0.1 µM (NCI-H522 [1]): -12% | GI50 (MDA-MB-435; read-out: GI50): 23.9 nM | CC50 (MDA-MB-435; [5]): > 100000 nM | TGI (MDA-MB-435; read-out: TGI): 130 nM | GI50 (MDA-MB-435; read-out: pGI50 (converted)): 24 nM | CC50 (MDA-MB-435; [6]): > 100000 nM | TGI (MDA-MB-435; read-out: pTGI (converted)): 129 nM | growth at 100 µM (UACC-62): -38% | growth at 0.01 µM (SK-OV-3): 87% | growth at 10 µM (TK-10 [2]): 18% | growth at 1 µM (HL-60(TB)): -17% | growth at 1 µM (NCI-H522 [3]): -39% | GI50 (TK-10 [4]; read-out: GI50): 79.2 nM | CC50 (TK-10 [4]; [5]): > 100000 nM | TGI (TK-10 [4]; read-out: TGI): 43100 nM | GI50 (TK-10 [4]; read-out: pGI50 (converted)): 79.4 nM | CC50 (TK-10 [4]; [6]): > 100000 nM | TGI (TK-10 [4]; read-out: pTGI (converted)): 42700 nM | growth at 100 µM (RXF 393): -2% | growth at 100 µM (HCT-116): -29% | GI50 (OVCAR-8; read-out: GI50): 327 nM | CC50 (OVCAR-8; [5]): > 100000 nM | TGI (OVCAR-8; read-out: TGI): > 100000 nM | GI50 (OVCAR-8; read-out: pGI50 (converted)): 324 nM | CC50 (OVCAR-8; [6]): > 100000 nM | TGI (OVCAR-8; read-out: pTGI): > 100000 nM
